Columns and labels:
Experiment in all cases: selective drug sensitivity score (sDSS, relative to normal bone marrow) (sDSS (score)); higher = more potent and effective on the cell line relative to normal bone marrow cells
Settings in all cases: 72 h
[1] = tested on: KOPN-8
[2] = tested on: HAL-01
[3] = tested on: TMD5
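Further: ALL cell lines in 384-well plates, five doses spanning 10,000-fold, each plate scaled between vehicle and 100 µmol/L benzalkonium chloride controls, sDSS an adapted area-under-curve metric.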

With `CCS(=O)(=O)Nc1ccc(Oc2ccc(F)cc2F)c(-c2cn(C)c(=O)c3[nH]ccc23)c1` [Mivebresib] (top concentration 10000 nM) the “selective drug sensitivity score” value [1] was 16.6, the “selective drug sensitivity score” value [2] was 1.1 and the “selective drug sensitivity score” value [3] was -5.7.

`CCS(=O)(=O)N1CC(CC#N)(n2cc(-c3ncnc4[nH]ccc34)cn2)C1` [Baricitinib] (top concentration 2500 nM) was tested, and the “selective drug sensitivity score” value [1] was -1.94, the “selective drug sensitivity score” value [2] was -1.94 and the “selective drug sensitivity score” value [3] was -1.94.

In the case of `COc1cc(C(=O)O)ccc1NC(=O)[C@@H]1N[C@@H](CC(C)(C)C)[C@](C#N)(c2ccc(Cl)cc2F)[C@H]1c1cccc(Cl)c1F` [Idasanutlin] (top concentration 10000 nM), the “selective drug sensitivity score” value [1] is reported as 25.7, the “selective drug sensitivity score” value [2] is reported as 19.1 and the “selective drug sensitivity score” value [3] is reported as 12.6.

With `C[C@@H]1CN(C(=O)c2ccc(NC(=O)c3cc(O[C@H](C)c4c(Cl)ccc(F)c4Cl)c(N)nn3)cc2)C[C@H](C)N1` [Ensartinib] (top concentration 1000 nM) the “selective drug sensitivity score” value [1] was 1.16, the “selective drug sensitivity score” value [2] was -2.84 and the “selective drug sensitivity score” value [3] was -1.84.

In the case of `COc1cc(CCc2cc(NC(=O)c3ccc(N4CC(C)NC(C)C4)cc3)n[nH]2)cc(OC)c1` (stereo not given) [AZD4547] (top concentration 1000 nM), the “selective drug sensitivity score” value [1] is reported as -0.14, the “selective drug sensitivity score” value [2] is reported as -0.14 and the “selective drug sensitivity score” value [3] is reported as -0.14.

`CN1CC[C@@H](NC(=O)Nc2ccc(C#N)cc2)C[C@@H]1c1nc2ccccc2[nH]1` [Glasdegib] (top concentration 1000 nM) was tested, and the “selective drug sensitivity score” value [1] was 0, the “selective drug sensitivity score” value [2] was 0 and the “selective drug sensitivity score” value [3] was 0.3.

With `O=C1CCC(N2C(=O)c3ccccc3C2=O)C(=O)N1` (stereo not given) [Thalidomide] (top concentration 10000 nM) the “selective drug sensitivity score” value [1] was -0.14, the “selective drug sensitivity score” value [2] was 0.36 and the “selective drug sensitivity score” value [3] was -0.14.

`CCCCC(=O)OCC(=O)[C@]1(O)Cc2c(O)c3c(c(O)c2[C@@H](O[C@H]2C[C@H](NC(=O)C(F)(F)F)[C@H](O)[C@H](C)O2)C1)C(=O)c1c(OC)cccc1C3=O` [Valrubicin] (top concentration 5000 nM) was tested, and the “selective drug sensitivity score” value [1] was 10.2, the “selective drug sensitivity score” value [2] was 0.38 and the “selective drug sensitivity score” value [3] was 4.18.

For `CCN(c1cc(-c2ccc(CN3CCOCC3)cc2)cc(C(=O)NCc2c(C)cc(C)[nH]c2=O)c1C)C1CCOCC1` [Tazemetostat] (top concentration 10000 nM), the “selective drug sensitivity score” value [1] was -0.08, the “selective drug sensitivity score” value [2] was 3.82 and the “selective drug sensitivity score” value [3] was -0.08.

`CN1CCN(C2CCN(C(=O)Nc3cc(Oc4ccc(NC(=O)C5(C(=O)Nc6ccc(F)cc6)CC5)c(F)c4)ccn3)CC2)CC1` [Golvatinib] (top concentration 2500 nM) was tested, and the “selective drug sensitivity score” value [1] was -0.14, the “selective drug sensitivity score” value [2] was 0.76 and the “selective drug sensitivity score” value [3] was 0.76.

In the case of `CC(O)c1cc(C(=O)N[C@@H](C)Cn2ccc(-c3ccc(C#N)c(Cl)c3)n2)n[nH]1` (stereo not given in full) [ODM-201] (top concentration 2500 nM), the “selective drug sensitivity score” value [1] is reported as 0.02, the “selective drug sensitivity score” value [2] is reported as 1.42 and the “selective drug sensitivity score” value [3] is reported as -0.28.

For `CC[C@@H]1CN(C(=O)NCC(F)(F)F)C[C@@H]1c1cnc2cnc3[nH]ccc3n12` [Upadacitinib] (top concentration 10000 nM), the “selective drug sensitivity score” value [1] was -7.16, the “selective drug sensitivity score” value [2] was -6.76 and the “selective drug sensitivity score” value [3] was -7.16.

`CN1CCN(C(=O)c2ccc3cc(CCNc4ncnc5ccc(C#N)cc45)ccc3c2)CC1` [Senexin_B] (top concentration 1000 nM) was tested, and the “selective drug sensitivity score” value [1] was -0.6, the “selective drug sensitivity score” value [2] was -0.6 and the “selective drug sensitivity score” value [3] was -0.6.

`CCCCOc1nc(N)c2c(n1)N(Cc1cccc(CN3CCCC3)c1)CC(=O)N2` [Vesatolimod] (top concentration 10000 nM) was tested, and the “selective drug sensitivity score” value [1] was -3.22, the “selective drug sensitivity score” value [2] was -3.52 and the “selective drug sensitivity score” value [3] was -3.52.

`COc1cc2c(Nc3ccc(Cl)c(Cl)c3F)ncnc2cc1OC[C@@H]1C[C@@H]2CN(C)C[C@@H]2C1` [Tesevatinib] (top concentration 1000 nM) was tested, and the “selective drug sensitivity score” value [1] was -0.86, the “selective drug sensitivity score” value [2] was 2.44 and the “selective drug sensitivity score” value [3] was 3.24.

In the case of `CCC1(c2ccc(N)cc2)CCC(=O)NC1=O` (stereo not given) [Aminoglutethimide] (top concentration 10000 nM), the “selective drug sensitivity score” value [1] is reported as 0, the “selective drug sensitivity score” value [2] is reported as 0 and the “selective drug sensitivity score” value [3] is reported as 0.

With `CCC1=C[C@@H]2CN(C1)Cc1c([nH]c3ccccc13)[C@@](C(=O)OC)(c1cc3c(cc1OC)N(C)[C@H]1[C@@](O)(C(=O)OC)[C@H](OC(C)=O)[C@]4(CC)C=CCN5CC[C@]31[C@@H]54)C2` [Vinorelbine] (top concentration 10000 nM) the “selective drug sensitivity score” value [1] was 25.8, the “selective drug sensitivity score” value [2] was 1.38 and the “selective drug sensitivity score” value [3] was 13.4.

For `O=C(O)CCCCC(CCSCc1ccccc1)SCc1ccccc1` (stereo not given) [Devimistat (CPI-613)] (top concentration 10000 nM), the “selective drug sensitivity score” value [1] was 0, the “selective drug sensitivity score” value [2] was 0 and the “selective drug sensitivity score” value [3] was 0.

`Nc1nc(Nc2ccc3c(c2)CC[C@@H](N2CCCC2)CC3)nn1-c1cc2c(nn1)-c1ccccc1CCC2` [BGB324] (top concentration 10000 nM) was tested, and the “selective drug sensitivity score” value [1] was 0.02, the “selective drug sensitivity score” value [2] was -1.58 and the “selective drug sensitivity score” value [3] was -2.98.

With `N.N.[Cl][Pt][Cl]` [Cisplatin] (top concentration 100000 nM) the “selective drug sensitivity score” value [1] was 21.7, the “selective drug sensitivity score” value [2] was 12 and the “selective drug sensitivity score” value [3] was 1.24.

With `CONC(=O)c1ccccc1Nc1cc(Nc2cc(C)nn2C(C)C)ncc1Cl` (top concentration 1000 nM) the “selective drug sensitivity score” value [1] was 3.86, the “selective drug sensitivity score” value [2] was 2.96 and the “selective drug sensitivity score” value [3] was -0.94.

For `Cc1cc(Nc2nc(N[C@@H](C)c3ncc(F)cn3)ncc2Cl)[nH]n1` [AZD1480] (top concentration 1000 nM), the “selective drug sensitivity score” value [1] was -4.28, the “selective drug sensitivity score” value [2] was -0.98 and the “selective drug sensitivity score” value [3] was -1.98.

With `O=C(NCc1ccncc1)C12CC3CC(C1)CC(c1ccc(Cl)cc1)(C3)C2` (top concentration 50000 nM) the “selective drug sensitivity score” value [1] was 4.48, the “selective drug sensitivity score” value [2] was 4.28 and the “selective drug sensitivity score” value [3] was 0.68.

With `CN1C(=O)N[C@H](Cc2c[nH]c3c(Cl)cccc23)C1=O` [Necrostatin_2] (top concentration 10000 nM) the “selective drug sensitivity score” value [1] was -0.08, the “selective drug sensitivity score” value [2] was -0.08 and the “selective drug sensitivity score” value [3] was -0.08.

`O=C(Nc1cnn2ccc(N3CCC[C@@H]3c3cc(F)ccc3F)nc12)N1CC[C@H](O)C1` [Larotrectinib] (top concentration 1000 nM) was tested, and the “selective drug sensitivity score” value [1] was -0.62, the “selective drug sensitivity score” value [2] was 0.68 and the “selective drug sensitivity score” value [3] was -0.62.

In the case of `CN(C)C(=O)c1ccc(S(=O)(=O)c2ccc(NC(=O)[C@@](C)(O)C(F)(F)F)c(Cl)c2)cc1` [AZD7545] (top concentration 10000 nM), the “selective drug sensitivity score” value [1] is reported as 3.1, the “selective drug sensitivity score” value [2] is reported as -0.2 and the “selective drug sensitivity score” value [3] is reported as -0.2.

With `Cc1cc2c(F)c(Oc3ncnn4cc(OC[C@@H](C)O)c(C)c34)ccc2[nH]1` [Brivanib] (top concentration 1000 nM) the “selective drug sensitivity score” value [1] was 0.16, the “selective drug sensitivity score” value [2] was -0.04 and the “selective drug sensitivity score” value [3] was -0.04.

In the case of `CC1(C)CCC(CN2CCN(c3ccc(C(=O)NS(=O)(=O)c4ccc(NCC5CCOCC5)c([N+](=O)[O-])c4)c(Oc4cnc5[nH]ccc5c4)c3)CC2)=C(c2ccc(Cl)cc2)C1` [Venetoclax] (top concentration 1000 nM), the “selective drug sensitivity score” value [1] is reported as 28.9, the “selective drug sensitivity score” value [2] is reported as 20.4 and the “selective drug sensitivity score” value [3] is reported as 20.8.

`N#CC1(c2ccc(NC(=O)c3cccnc3NCc3ccncc3)cc2)CCCC1` [Apatinib] (top concentration 10000 nM) was tested, and the “selective drug sensitivity score” value [1] was 0.1, the “selective drug sensitivity score” value [2] was 0 and the “selective drug sensitivity score” value [3] was 0.

For `C=CC[C@@H]1/C=C(\C)C[C@H](C)C[C@H](OC)[C@H]2O[C@@](O)(C(=O)C(=O)N3CCCC[C@H]3C(=O)O[C@H](/C(C)=C/[C@@H]3CC[C@@H](O)[C@H](OC)C3)[C@H](C)[C@@H](O)CC1=O)[C@H](C)C[C@@H]2OC` [Tacrolimus] (top concentration 10000 nM), the “selective drug sensitivity score” value [1] was 4.68, the “selective drug sensitivity score” value [2] was 8.58 and the “selective drug sensitivity score” value [3] was 13.5.

`CCNc1nc(Nc2cc(F)c(C(=O)N3CCOCC3)cc2OC)ncc1C(F)(F)F` [GNE-7915] (top concentration 1000 nM) was tested, and the “selective drug sensitivity score” value [1] was -0.06, the “selective drug sensitivity score” value [2] was 1.04 and the “selective drug sensitivity score” value [3] was 5.44.

`COc1cc(Nc2c(C#N)cnc3cc(OCCCN4CCN(C)CC4)c(OC)cc23)c(Cl)cc1Cl` [Bosutinib] (top concentration 10000 nM) was tested, and the “selective drug sensitivity score” value [1] was 4.56, the “selective drug sensitivity score” value [2] was -0.54 and the “selective drug sensitivity score” value [3] was 9.06.

With `C[C@H]1CN(C2COC2)CCN1c1ccc(Nc2cc(-c3ccnc(N4CCn5c(cc6c5CC(C)(C)C6)C4=O)c3CO)cn(C)c2=O)nc1` [GDC-0853] (top concentration 1000 nM) the “selective drug sensitivity score” value [1] was 0, the “selective drug sensitivity score” value [2] was 0 and the “selective drug sensitivity score” value [3] was 0.

`COc1cc2c(NC3CCN(C(C)C)CC3)nc(C3CCCCC3)nc2cc1OCCCN1CCCC1` [UNC0638] (top concentration 10000 nM) was tested, and the “selective drug sensitivity score” value [1] was -4.44, the “selective drug sensitivity score” value [2] was -4.64 and the “selective drug sensitivity score” value [3] was -4.84.

With `COc1cc2ncnc(Nc3ccc(F)c(Cl)c3)c2cc1OCCCN1CCOCC1` [Gefitinib] (top concentration 10000 nM) the “selective drug sensitivity score” value [1] was 2.96, the “selective drug sensitivity score” value [2] was -0.14 and the “selective drug sensitivity score” value [3] was -2.14.
